In assay [1] the test system is ACh-induced bronchoconstriction. Put plainly: Duration of bronchoprotection in guinea pig model of acetylcholine-induced bronchoconstriction. Format: in vivo. The following applies: inhalation, 1.5 hours post-dose. Here is the method: Determination of Duration of Bronchoprotection in Guinea Pig Model of Acetylcholine-Induced Bronchoconstriction
Groups of six male guinea pigs (Duncan-Hartley (HsdPoc:DH) Harlan, Madison, Wis.) weighing between 250 and 350 g were individually identified by cage cards. Throughout the study animals were allowed access to food and water ad libitum.
Test compounds were administered via inhalation over 10 minutes in a whole-body exposure dosing chamber (R&S Molds, San Carlos, Calif.). The dosing chambers were arranged so that an aerosol was simultaneously delivered to 6 individual chambers from a central manifold. Guinea pigs were exposed to an aerosol of a test compound or vehicle (WFI). […] This was measured gravimetrically by comparing pre- and post-nebulization weights of the filled nebulizer.
The bronchoprotective effects of test compounds administered via inhalation were evaluated using whole body plethysmography at 1.5, 24, 48 and 72 hours post-dose.
Forty-five minutes prior to the start of the pulmonary evaluation, each guinea pig was anesthetized with an intramuscular injection of ketamine (43.75 mg/kg), xylazine (3.50 mg/kg) and acepromazine (1.05 mg/kg). […] The depth of anesthesia was monitored and adjusted if the animal responded to pinching of its paw or if the respiration rate was greater than 100 breaths/minute. […]

The target in another assay is T1, hM2 receptor (Homo sapiens, UniProt P08172).
T1 construct: expressed in transfected cells; host or cells: CHO-K1 cells
T1 sequence (P08172 1-466): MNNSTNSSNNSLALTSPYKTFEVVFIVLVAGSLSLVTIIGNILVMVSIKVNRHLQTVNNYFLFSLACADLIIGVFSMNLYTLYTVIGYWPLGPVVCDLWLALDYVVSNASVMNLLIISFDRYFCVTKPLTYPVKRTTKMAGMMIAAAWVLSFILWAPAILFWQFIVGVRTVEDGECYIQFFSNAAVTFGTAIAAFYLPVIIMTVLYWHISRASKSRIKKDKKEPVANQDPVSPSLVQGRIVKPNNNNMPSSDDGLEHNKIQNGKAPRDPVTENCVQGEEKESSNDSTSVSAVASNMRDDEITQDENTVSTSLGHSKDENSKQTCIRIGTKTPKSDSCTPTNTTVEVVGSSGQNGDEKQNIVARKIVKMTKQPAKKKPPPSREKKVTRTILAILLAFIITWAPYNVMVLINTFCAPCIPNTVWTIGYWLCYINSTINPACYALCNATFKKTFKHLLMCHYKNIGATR
Put plainly: Blockade of agonist-mediated inhibition of cAMP accumulation. It counts as cell-based. The following applies: CHO-K1 cells expressing the hM2 receptor; read-out: Ki value for blockade of oxotremorine-inhibition of forskolin-mediated cAMP accumulation. Here is the method: A. Blockade of Agonist-Mediated Inhibition of cAMP Accumulation
In this assay, the functional potency of a test compound was determined by measuring the ability of the test compound to block oxotremorine-inhibition of forskolin-mediated cAMP accumulation in CHO-K1 cells expressing the hM2 receptor.
cAMP assays were performed in a radioimmunoassay format using the Flashplate Adenylyl Cyclase Activation Assay System with ^125I-cAMP (NEN SMP004B, PerkinElmer Life Sciences Inc., Boston, Mass.), according to the manufacturer's instructions.
Cells were rinsed once with dPBS and lifted with Trypsin-EDTA solution (0.05% trypsin/0.53 mM EDTA) as described in the Cell Culture and Membrane Preparation section above. […] The cell pellet was then re-suspended in 10 mL dPBS, and the cells were counted with a Coulter Z1 Dual Particle Counter (Beckman Coulter, Fullerton, Calif.). […]
Reactions were incubated for 10 minutes at 37° C. and stopped by addition of 100 μL ice-cold detection buffer. Plates were sealed, incubated overnight at room temperature and counted the next morning on a PerkinElmer TopCount liquid scintillation counter (PerkinElmer Inc., Wellesley, Mass.). The amount of cAMP produced (pmol/well) was calculated based on the counts observed for the samples and cAMP standards, as described in the manufacturer's user manual. […]

A value given as a limit tells only on which side of the number the result lay.

In general, Ki refers to a dissociation constant, usually derived from enzyme kinetics or from competition with a known ligand. On to `CN(CCN1CCC(OC(=O)Nc2ccccc2-c2ccccc2)CC1)C(=O)CCCCCNCCc1ccc(O)cc1` [Example 1, Biphenyl-2-ylcarbamic Acid 1-[2-({6-[2-(4-Hydroxyphenyl)ethylamino]hexanoyl}methylamino)ethyl]piperidin-4-yl Ester], for which, in assay [1], the “PD2(50) for ACh-induced bronchoconstriction” value was “less than 200 μg/mL”. Further, at hM2 receptor, the Ki is < 10 nM.

The record behind these values is patent publication US7501442B2, “Biphenyl compounds useful as muscarinic receptor antagonists” (Theravance, Inc., priority 2004, dated 2009).
